Laboratory results taken from patent publication US9346813B2, “Substituted pyrrolo[2,3-d]pyrimindines as CDK9 kinase inhibitors” (AbbVie Inc., priority 2014, dated 2016).

What was measured:
CDK9/Cyclin T1 = biological target: T1, CDK9/Cyclin T1 (Homo sapiens, UniProt P50750); test: CDK9 enzyme protocol (LANCE ULight TR-FRET kinase assay); type: biochemical; details: 4 nM CDK9/Cyclin T1, 1000 μM ATP, 100 nM U-light MBP peptide, 30 minutes
T1 construct: purchased Carna Biosciences 04-110
How it was run: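 Human CDK9/Cyclin T1 (4 nM) phosphorylated 100 nM ULight-MBP peptide at 1000 μM ATP for 30 min in HEPES/MgCl2/Triton buffer. The reaction was stopped with 20 mM EDTA plus 0.5 nM Eu anti-phospho-MBP antibody and equilibrated 1 h. Read-out was TR-FRET (ex 320, em 615/665 nm).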

A431 cells = test: Cell viability assay in A431 cells (Cell TiterGlo); type: cell-based; details: Homo sapiens, A-431, 24 hours at 37° C.
Procedure: (§1) Cell viability assays were performed using A431 or H929 cells. A431 cells were seeded in 96-well plates at 10,000 cells/well, and after overnight incubation, treated with compounds at 2-times the final concentration to result in a dose response of 3-fold dilutions from 10 μM to 0.0005 μM (50 μL/well, 0.1% final DMSO concentration). H929 cells were seeded in 96-well plates at 10,000 cells/well and treated immediately with compounds as described above. After 24 hours at 37° C., cell viability was measured using Cell TiterGlo reagent (Promega) with a luminescence reader. Alternately, cell viability assays were performed in 384-well format. A431 cells were seeded in 384-well plates at 2500 cells/well and, after overnight incubation, treated with compounds in a dose response of 3-fold dilutions from 10 μM to 0.0005 μM (25 nL/well, 0.1% final DMSO concentration). For the H929 viability assay, 25 nL/well of the compounds was dispensed into 384-well plates in a dose response as described above and cells were immediately seeded in 384-well plates at 2500 cells/well. After 24 hours at 37° C., cell viability was measured using Cell TiterGlo reagent (Promega) with a luminescence reader.

H929 cells = test: Cell viability assay in H929 cells (Cell TiterGlo); type: cell-based; details: Homo sapiens, NCI-H929, 24 hours at 37° C.
Procedure: as §1

T1 sequence (P50750 whole entry): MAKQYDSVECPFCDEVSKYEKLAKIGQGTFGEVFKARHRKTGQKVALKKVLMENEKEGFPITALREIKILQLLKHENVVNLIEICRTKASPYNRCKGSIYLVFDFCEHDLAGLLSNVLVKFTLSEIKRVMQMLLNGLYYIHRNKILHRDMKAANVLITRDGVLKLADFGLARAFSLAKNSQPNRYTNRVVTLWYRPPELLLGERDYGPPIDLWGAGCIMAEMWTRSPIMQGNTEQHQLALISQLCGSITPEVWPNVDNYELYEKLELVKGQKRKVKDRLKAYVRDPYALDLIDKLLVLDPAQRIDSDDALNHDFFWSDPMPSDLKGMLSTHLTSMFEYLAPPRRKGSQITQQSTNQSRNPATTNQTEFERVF
T1 sequence (O60563 whole entry partner): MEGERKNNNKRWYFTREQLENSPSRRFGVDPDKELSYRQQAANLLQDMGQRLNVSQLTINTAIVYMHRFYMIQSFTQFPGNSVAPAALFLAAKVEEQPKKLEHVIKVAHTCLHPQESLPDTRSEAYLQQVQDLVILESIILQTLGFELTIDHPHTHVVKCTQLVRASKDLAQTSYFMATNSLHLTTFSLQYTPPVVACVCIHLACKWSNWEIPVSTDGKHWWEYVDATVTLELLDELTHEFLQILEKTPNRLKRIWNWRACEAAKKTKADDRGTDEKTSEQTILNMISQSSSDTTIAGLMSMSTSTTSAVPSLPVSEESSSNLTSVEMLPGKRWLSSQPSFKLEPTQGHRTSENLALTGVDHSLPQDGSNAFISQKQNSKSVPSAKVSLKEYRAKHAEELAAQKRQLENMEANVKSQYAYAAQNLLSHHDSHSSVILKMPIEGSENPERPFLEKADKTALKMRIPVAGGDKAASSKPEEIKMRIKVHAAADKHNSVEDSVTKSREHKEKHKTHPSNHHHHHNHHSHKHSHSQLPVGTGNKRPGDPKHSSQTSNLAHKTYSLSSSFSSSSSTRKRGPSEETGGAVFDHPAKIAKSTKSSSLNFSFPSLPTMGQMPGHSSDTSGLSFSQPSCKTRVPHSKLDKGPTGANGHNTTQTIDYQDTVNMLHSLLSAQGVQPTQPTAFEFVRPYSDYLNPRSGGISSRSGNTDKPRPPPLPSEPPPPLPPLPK

Question: COc1ccc(F)cc1-c1ncnc2[nH]c(C3CCNCC3)cc12 [Example 1, 4-(5-fluoro-2-methoxyphenyl)-6-(piperidin-4-yl)-7H-pyrrolo[2,3-d]pyrimidine] was tested. Which IC50 (CDK9/Cyclin T1) did it give?
Answer: 52 nM

Question: And the EC50 (A431 cells)?
Answer: 100 nM

Question: What does the source list for COc1ccc(F)cc1-c1ncnc2[nH]c(C3=CCNCC3)cc12 [Example 3, 4-(5-fluoro-2-methoxyphenyl)-6-(1,2,3,6-tetrahydropyridin-4-yl)-7H-pyrrolo[2,3-d]pyrimidine]?
Answer: EC50 (A431 cells): 32 nM; EC50 (H929 cells): 200 nM

Question: For COc1ccc(F)cc1-c1ncnc2[nH]c(C3=CCN(C(=O)CO)CC3)cc12 [Example 7, 1-{4-[4-(5-fluoro-2-methoxyphenyl)-7H-pyrrolo[2,3-d]pyrimidin-6-yl]-3,6-dihydropyridin-1(2H)-yl}-2-hydroxyethanone], which IC50 (CDK9/Cyclin T1) is on record?
Answer: 37 nM

Question: What about the EC50 (A431 cells) of the same molecule?
Answer: 150 nM

Question: What about the EC50 (H929 cells) of the same molecule?
Answer: 180 nM

Question: Which results are given for Fc1ccc(NCc2ccccc2)cc1-c1ncnc2[nH]c(C3CCNCC3)cc12 [Example 9, N-benzyl-4-fluoro-3-[6-(piperidin-4-yl)-7H-pyrrolo[2,3-d]pyrimidin-4-yl]aniline]?
Answer: IC50 (CDK9/Cyclin T1): 72 nM; EC50 (A431 cells): 120 nM

Question: What does the source list for CNC(=O)N1CC=C(c2cc3c(-c4cc(F)ccc4OC)ncnc3[nH]2)CC1 [Example 17, 4-[4-(5-fluoro-2-methoxyphenyl)-7H-pyrrolo[2,3-d]pyrimidin-6-yl]-N-methyl-3,6-dihydropyridine-1(2H)-carboxamide]?
Answer: IC50 (CDK9/Cyclin T1): 120 nM; EC50 (A431 cells): 260 nM; EC50 (H929 cells): 200 nM

Question: Which results are given for COc1ccc(F)cc1-c1ncnc2[nH]c(C3=CCN(Cc4ccc(C(=O)O)cc4)CC3)cc12 [Example 72, 4-({4-[4-(5-fluoro-2-methoxyphenyl)-7H-pyrrolo[2,3-d]pyrimidin-6-yl]-3,6-dihydropyridin-1(2H)-yl}methyl)benzoic acid]?
Answer: IC50 (CDK9/Cyclin T1): 110 nM; EC50 (A431 cells): 5200 nM; EC50 (H929 cells): 2400 nM

Question: Which results are given for COc1ccc(F)cc1-c1ncnc2[nH]c(C3=CCN(CC(=O)N(C)C)CC3)cc12 [Example 80, 2-{4-[4-(5-fluoro-2-methoxyphenyl)-7H-pyrrolo[2,3-d]pyrimidin-6-yl]-3,6-dihydropyridin-1(2H)-yl}-N,N-dimethylacetamide]?
Answer: EC50 (A431 cells): 130 nM; EC50 (H929 cells): 120 nM

Question: COc1ccc(F)cc1-c1ncnc2[nH]c(C3=CCN(Cc4ccc(NS(C)(=O)=O)cc4)CC3)cc12 [Example 81, N-[4-({4-[4-(5-fluoro-2-methoxyphenyl)-7H-pyrrolo[2,3-d]pyrimidin-6-yl]-3,6-dihydropyridin-1(2H)-yl}methyl)phenyl]methanesulfonamide] was tested. Which IC50 (CDK9/Cyclin T1) did it give?
Answer: 75 nM

Question: What about the EC50 (A431 cells) of the same molecule?
Answer: 110 nM

Question: And the EC50 (H929 cells)?
Answer: 100 nM

Question: Which IC50 (CDK9/Cyclin T1) does the source give for CCOC(=O)NS(=O)(=O)N1CC=C(c2cc3c(-c4cc(F)ccc4OC)ncnc3[nH]2)CC1 [Example 82, ethyl ({4-[4-(5-fluoro-2-methoxyphenyl)-7H-pyrrolo[2,3-d]pyrimidin-6-yl]-3,6-dihydropyridin-1(2H)-yl}sulfonyl)carbamate] here?
Answer: 71 nM

Question: What about the EC50 (H929 cells) of the same molecule?
Answer: 780 nM

Question: For COc1ccc(F)cc1-c1ncnc2[nH]c(C3=CCC(N[C@H](C(=O)O)C(C)(C)C)CC3)cc12 (stereo partly drawn) [Example 83, N-{4-[4-(5-fluoro-2-methoxyphenyl)-7H-pyrrolo[2,3-d]pyrimidin-6-yl]cyclohex-3-en-1-yl}-3-methyl-L-valine], which IC50 (CDK9/Cyclin T1) is on record?
Answer: 320 nM

Question: And the EC50 (H929 cells)?
Answer: 520 nM

Question: With COc1ccc(F)cc1-c1ncnc2[nH]c(C3=CCC(N[C@@H](C(=O)O)C(C)C)CC3)cc12 (stereo partly drawn) [Example 84, N-{4-[4-(5-fluoro-2-methoxyphenyl)-7H-pyrrolo[2,3-d]pyrimidin-6-yl]cyclohex-3-en-1-yl}-D-valine] as the molecule, how does the IC50 (CDK9/Cyclin T1) read?
Answer: 440 nM

Question: What about the EC50 (H929 cells) of the same molecule?
Answer: 6400 nM

Question: COc1ccc(F)cc1-c1ncnc2[nH]c(C3=CCC(N[C@@H](CC(C)C)C(=O)O)CC3)cc12 (stereo partly drawn) [Example 85, N-{4-[4-(5-fluoro-2-methoxyphenyl)-7H-pyrrolo[2,3-d]pyrimidin-6-yl]cyclohex-3-en-1-yl}-L-leucine] was tested. Which IC50 (CDK9/Cyclin T1) did it give?
Answer: 170 nM

Question: And the EC50 (H929 cells)?
Answer: 1700 nM

Question: For COc1ccc(F)cc1-c1ncnc2[nH]c(C3=CCN(C4CCC(C(=O)O)CC4)CC3)cc12 (centres unmarked) [Example 86, 4-{4-[4-(5-fluoro-2-methoxyphenyl)-7H-pyrrolo[2,3-d]pyrimidin-6-yl]-3,6-dihydropyridin-1(2H)-yl}cyclohexanecarboxylic acid], which IC50 (CDK9/Cyclin T1) is on record?
Answer: 400 nM

Question: What about the EC50 (H929 cells) of the same molecule?
Answer: 3600 nM

Question: What does the source list for COc1ccc(F)cc1-c1ncnc2[nH]c(C3=CCN([C@H]4CC[C@H](CC(=O)O)CC4)CC3)cc12 [Example 87, (trans-4-{4-[4-(5-fluoro-2-methoxyphenyl)-7H-pyrrolo[2,3-d]pyrimidin-6-yl]-3,6-dihydropyridin-1(2H)-yl}cyclohexyl)acetic acid]?
Answer: IC50 (CDK9/Cyclin T1): 300 nM; EC50 (H929 cells): 4100 nM
